In PubChem BioAssay AID1845215 (Molecular Pharmacology Branch, DTP, NCI, 2023):
Active and inactive are the calls of the source. How the source made its calls: active means viability on the fitted dose curve at most 10% of control; inactive means the rest.

System: SW 1271 complex tumor spheroid viability
Experiment: Anticancer human tumor SW 1271 cell line growth inhibition;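 on IC50: spheroids exposed to agents for seven days before readout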;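 on viability, T/C: spheroids exposed to agents for seven days before readout; percent of DMSO vehicle control luminescence so 100% = vehicle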
Settings: for IC50: curve of first compound; for viability, T/C: stronger effect = lower value
Method in brief: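 Single agents and combinations were tested on spheroids built from tumor cells plus HUVEC and hMSC, at half-log dilutions starting at or near clinical Cmax, else 10 microM; final DMSO 0.25% (v/v).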

[1] = second compound 1 µM, first compound 0.00949 µM
[2] = second compound 1 µM, first compound 0.03 µM
[3] = second compound 1 µM, first compound 0.0949 µM
[4] = second compound 1 µM, first compound 0.3 µM
[5] = second compound 1 µM, first compound 0.949 µM
[6] = second compound 1 µM, first compound 3 µM
[7] = second compound 3.16 µM, first compound 0.00949 µM
[8] = second compound 3.16 µM, first compound 0.03 µM
[9] = second compound 3.16 µM, first compound 0.0949 µM
[10] = second compound 3.16 µM, first compound 0.3 µM
[11] = second compound 3.16 µM, first compound 0.949 µM
[12] = second compound 3.16 µM, first compound 3 µM
[13] = second compound 10 µM, first compound 0.00949 µM
[14] = second compound 10 µM, first compound 0.03 µM
[15] = second compound 10 µM, first compound 0.0949 µM
[16] = second compound 10 µM, first compound 0.3 µM
[17] = second compound 10 µM, first compound 0.949 µM
[18] = second compound 10 µM, first compound 3 µM
[19] = second compound 31.6 µM, first compound 0.00949 µM
[20] = second compound 31.6 µM, first compound 0.03 µM
[21] = second compound 31.6 µM, first compound 0.0949 µM
[22] = second compound 31.6 µM, first compound 0.3 µM
[23] = second compound 31.6 µM, first compound 0.949 µM
[24] = second compound 31.6 µM, first compound 3 µM
[25] = second compound 100 µM, first compound 0.00949 µM
[26] = second compound 100 µM, first compound 0.03 µM
[27] = second compound 100 µM, first compound 0.0949 µM
[28] = second compound 100 µM, first compound 0.3 µM
[29] = second compound 100 µM, first compound 0.949 µM
[30] = second compound 100 µM, first compound 3 µM
[31] = second compound 1 µM, first compound 0.0316 µM
[32] = second compound 1 µM, first compound 0.1 µM
[33] = second compound 1 µM, first compound 0.316 µM
[34] = second compound 1 µM, first compound 1 µM
[35] = second compound 1 µM, first compound 3.16 µM
[36] = second compound 1 µM, first compound 10 µM
[37] = second compound 3.16 µM, first compound 0.0316 µM
[38] = second compound 3.16 µM, first compound 0.1 µM
[39] = second compound 3.16 µM, first compound 0.316 µM
[40] = second compound 3.16 µM, first compound 1 µM
[41] = second compound 3.16 µM, first compound 3.16 µM
[42] = second compound 3.16 µM, first compound 10 µM
[43] = second compound 10 µM, first compound 0.0316 µM
[44] = second compound 10 µM, first compound 0.1 µM
[45] = second compound 10 µM, first compound 0.316 µM
[46] = second compound 10 µM, first compound 1 µM
[47] = second compound 10 µM, first compound 3.16 µM
[48] = second compound 10 µM, first compound 10 µM
[49] = second compound 31.6 µM, first compound 0.0316 µM
[50] = second compound 31.6 µM, first compound 0.1 µM
[51] = second compound 31.6 µM, first compound 0.316 µM
[52] = second compound 31.6 µM, first compound 1 µM
[53] = second compound 31.6 µM, first compound 3.16 µM
[54] = second compound 31.6 µM, first compound 10 µM
[55] = second compound 100 µM, first compound 0.0316 µM
[56] = second compound 100 µM, first compound 0.1 µM
[57] = second compound 100 µM, first compound 0.316 µM
[58] = second compound 100 µM, first compound 1 µM
[59] = second compound 100 µM, first compound 3.16 µM
[60] = second compound 100 µM, first compound 10 µM

Structure (SMILES): CNCc1ccc(-c2cc(-c3nc(-c4ccc(S(=O)(=O)C(C)C)cc4)cnc3N)on2)cc1 + Cn1nnc2c(C(N)=O)ncn2c1=O
- IC50 (second compound 1 µM): 213 nM
- IC50 (second compound 3.16 µM): 170 nM
- IC50 (second compound 10 µM): 185 nM
- IC50 (second compound 31.6 µM): 174 nM
- IC50 (second compound 100 µM): 52.4 nM
- viability, T/C [1]: 105%
- viability, T/C [2]: 102%
- viability, T/C [3]: 98.8%
- viability, T/C [4]: 29.5%
- viability, T/C [5]: 7.14%
- viability, T/C [6]: 0.1%
- viability, T/C [7]: 109%
- viability, T/C [8]: 106%
- outcome [9]: inactive
- viability, T/C [10]: 23.8%
- viability, T/C [11]: 7.34%
- viability, T/C [12]: 0.12%
- viability, T/C [13]: 99.1%
- viability, T/C [14]: 105%
- viability, T/C [15]: 89.7%
- viability, T/C [16]: 20.8%
- viability, T/C [17]: 5.82%
- viability, T/C [18]: 0.11%
- viability, T/C [19]: 115%
- viability, T/C [20]: 82.3%
- viability, T/C [21]: 75.5%
- viability, T/C [22]: 17.5%
- viability, T/C [23]: 37.5%
- viability, T/C [24]: 0.15%
- viability, T/C [25]: 93.7%
- viability, T/C [26]: 69.8%
- viability, T/C [27]: 29.5%
- viability, T/C [28]: 9.36%
- viability, T/C [29]: 29.7%
- viability, T/C [30]: 0.18%

Structure (SMILES): Cc1cc(C)c(CNC(=O)c2cc(-c3ccc(CN4CCOCC4)cc3)cc3c2cnn3C2CCCC2)c(=O)[nH]1 + Cn1nnc2c(C(N)=O)ncn2c1=O
- IC50 (second compound 1 µM): > 10000 nM
- IC50 (second compound 3.16 µM): > 10000 nM
- IC50 (second compound 10 µM): > 10000 nM
- IC50 (second compound 31.6 µM): > 10000 nM
- IC50 (second compound 100 µM): > 10000 nM
- viability, T/C [31]: 98.6%
- viability, T/C [32]: 92.6%
- viability, T/C [33]: 93.5%
- viability, T/C [34]: 91.5%
- viability, T/C [35]: 88.7%
- viability, T/C [36]: 73.1%
- viability, T/C [37]: 93.7%
- viability, T/C [38]: 101%
- viability, T/C [39]: 95.3%
- viability, T/C [40]: 99.2%
- viability, T/C [41]: 83.9%
- viability, T/C [42]: 79.1%
- viability, T/C [43]: 97.7%
- viability, T/C [44]: 91.7%
- viability, T/C [45]: 98.8%
- viability, T/C [46]: 96.7%
- viability, T/C [47]: 81.5%
- viability, T/C [48]: 76.2%
- viability, T/C [49]: 106%
- viability, T/C [50]: 103%
- viability, T/C [51]: 102%
- viability, T/C [52]: 100%
- viability, T/C [53]: 74.5%
- viability, T/C [54]: 62%
- viability, T/C [55]: 91.8%
- viability, T/C [56]: 90.4%
- viability, T/C [57]: 79.8%
- viability, T/C [58]: 81.7%
- viability, T/C [59]: 70.7%
- viability, T/C [60]: 52.7%

Structure (SMILES): Cc1sc2c(c1C)C(c1ccc(Cl)cc1)=NC(CC(=O)Nc1ccc(O)cc1)c1nnc(C)n1-2 (stereo not given) + Cn1nnc2c(C(N)=O)ncn2c1=O
- IC50 (second compound 1 µM): 69 nM
- IC50 (second compound 3.16 µM): 85.4 nM
- IC50 (second compound 10 µM): 77.9 nM
- IC50 (second compound 31.6 µM): 70.1 nM
- IC50 (second compound 100 µM): 54.2 nM
- viability, T/C [1]: 118%
- viability, T/C [2]: 100%
- viability, T/C [3]: 30.9%
- viability, T/C [4]: 3.27%
- viability, T/C [5]: 1.29%
- viability, T/C [6]: 1.13%
- viability, T/C [7]: 107%
- viability, T/C [8]: 110%
- viability, T/C [9]: 44.2%
- viability, T/C [10]: 2.74%
- viability, T/C [11]: 1.12%
- viability, T/C [12]: 1.25%
- viability, T/C [13]: 116%
- viability, T/C [14]: 110%
- viability, T/C [15]: 37.5%
- viability, T/C [16]: 3.68%
- viability, T/C [17]: 1.21%
- viability, T/C [18]: 1.48%
- viability, T/C [19]: 104%
- viability, T/C [20]: 96.5%
- viability, T/C [21]: 33.5%
- viability, T/C [22]: 3.27%
- viability, T/C [23]: 1.04%
- viability, T/C [24]: 0.93%
- viability, T/C [25]: 96.8%
- viability, T/C [26]: 77.6%
- viability, T/C [27]: 24%
- viability, T/C [28]: 2.27%
- viability, T/C [29]: 1.7%
- viability, T/C [30]: 0.96%

Structure (SMILES): [2H]c1nc(C)nc([2H])c1-c1cc(NC[C@@H](C)c2cccc3c(C(=O)NC)ccnc23)ncn1 + Cn1nnc2c(C(N)=O)ncn2c1=O
- IC50 (second compound 1 µM): > 10000 nM
- IC50 (second compound 3.16 µM): > 10000 nM
- IC50 (second compound 10 µM): > 10000 nM
- IC50 (second compound 31.6 µM): > 10000 nM
- IC50 (second compound 100 µM): > 10000 nM
- viability, T/C [31]: 91.1%
- viability, T/C [32]: 101%
- viability, T/C [33]: 95.1%
- viability, T/C [34]: 96.7%
- viability, T/C [35]: 98.9%
- viability, T/C [36]: 78.5%
- viability, T/C [37]: 104%
- viability, T/C [38]: 103%
- viability, T/C [39]: 103%
- viability, T/C [40]: 98.9%
- viability, T/C [41]: 96.8%
- viability, T/C [42]: 84.8%
- viability, T/C [43]: 101%
- viability, T/C [44]: 103%
- viability, T/C [45]: 92.4%
- viability, T/C [46]: 88.3%
- viability, T/C [47]: 87.2%
- viability, T/C [48]: 81.1%
- viability, T/C [49]: 110%
- viability, T/C [50]: 99.3%
- viability, T/C [51]: 100%
- viability, T/C [52]: 98.7%
- viability, T/C [53]: 98.3%
- viability, T/C [54]: 80.3%
- viability, T/C [55]: 93.1%
- viability, T/C [56]: 90.2%
- viability, T/C [57]: 86%
- viability, T/C [58]: 77.8%
- viability, T/C [59]: 73.8%
- viability, T/C [60]: 64.7%
